# Experimental data: patent publication US7192962B2, “Xanthine phosphodiesterase V inhibitor polymorphs” (Schering Corporation, priority 2002, dated 2007)
# How the values were obtained:
# PDE V isoenzyme = PDE V isoenzyme (Homo sapiens, UniProt O76074); assay: PDE V isoenzyme inhibition; type: biochemical; details: concentration required to provide 50% inhibition of PDE V isoenzyme
# Source text: Forms 1 and 2 of Compound 13 are each useful for inhibiting PDE V isoenzymes. Their isoenzyme activities (potencies) and isoenzyme selectivities can be measured by the PDE V IC50 value, which is the concentration (in nM) of compound required to provide 50% inhibition of PDE V isoenzyme. […] Similarly, an IC50 value may be obtained for other PDE isoenzymes, such as the PDE VI isoenzyme. Isoenzyme selectivity in this respect may be defined as the activity of a PDE inhibitor compound for a particular PDE isoenzyme as opposed to another PDE isoenzyme, for example, the activity of a compound to inhibit a PDE V isoenzyme compared to the activity of the same compound to inhibit a PDE VI isoenzyme.
# [1] = Water solubility of the polymorphs; type: physicochemical
# [2] = Thermodynamic stability of the polymorphs; type: physicochemical; details: at process temperatures
# Procedure: The two polymorphs also further differ in their water solubilities (Form 1: about 50 μg/mL vs. Form 2: about 30 μg/mL). […] Form 1 can equilibrate to Form 2 when slurried in one of the Form 2 crystallizing solvents (e.g., alcohol, nitrile, ester, etc.). For example, when a mixture of Form 1 of Compound 13 and Form 2 of Compound 13 is suspended in an organic crystallizing solvent (e.g., ethyl acetate, isopropanol, acetonitrile, and the like), and stored for an extended period of time (e.g., greater than or equal to about 10 hours), the Form 1 component of the mixture will convert to Form 2 of Compound 13.
SMILES,IC50 (PDE V isoenzyme) [nM],solubility [1] [µg/mL],water solubility [1],thermodynamic stability [2]
"CCn1c(=O)c2c(nc(N[C@@H]3CCC[C@H]3O)n2Cc2ccc(OC)c(Br)c2)n(CCO)c1=O [Form 1 of Compound 13, 1-ethyl-3,7-dihydro-8-[(1R,2R) -(hydroxycyclopentyl)amino]-3-(2-hydroxyethyl)-7-[(3-bromo-4-methoxyphenyl)methyl]-1H-Purine-2,6-dione]",2 to 3,~50,,
"CCn1c(=O)c2c(nc(N[C@@H]3CCC[C@H]3O)n2Cc2ccc(OC)c(Br)c2)n(CCO)c1=O [Form 2 of Compound 13, 1-ethyl-3,7-dihydro-8-[(1R,2R) -(hydroxycyclopentyl)amino]-3-(2-hydroxyethyl)-7-[(3-bromo-4-methoxyphenyl)methyl]-1H-Purine-2,6-dione]",,,about 30 μg/mL,more thermodynamically stable than Form 1 of Compound 13
